# Results: US20100113334A1, “METHODS FOR REDUCING OR PREVENTING TRANSMISSION OF NOSOCOMIAL PATHOGENS IN A HEALTH CARE FACILITY” (priority 2003, published 2010)
# Entries after “also recorded” stand apart in the source; their conditions may differ.
# Assays:
# [1] = Oral administration to healthy male volunteers: absorption and excretion (Example 7, 7.1); type: in vivo, human
# Method: Both bioassay and HPLC-based assays to assess the absorption, distribution, metabolism, and excretion were utilized in these studies.
# The predetermined dose was reconstituted in 5 mL water per vial, mixed with 50 mL of sweetened, aromatized solution, and immediately administered orally to the subjects.
# [2] = test system: VRE; assay: Effect of prior ramoplanin treatment on establishment of VRE colonization (Example 4); type: in vivo, mice; conditions: 10^7 CFU VRE 4 hours or 1, 2, 4 days after 7 days of 100 μg/ml; P>0.05 vs controls
# From the text: The density of VRE in stool was monitored before and 1 and 4 days after inoculation. Four mice were included in each treatment group.
# [3] = test system: VRE C68; assay: Eradication of VRE stool colonization in mice (Example 2); type: in vivo
# Method: Quantification of Stool Pathogens: Fresh stool specimens were processed as described by Donskey et al. (supra). In order to quantify VRE, K. pneumoniae, and C. glabrata, diluted samples were plated onto Enterococcosel agar containing vancomycin 20 μg/mL, MacConkey agar containing ceftazidime 10 μg/mL, or Sabouraud Dextrose Agar (Becton, Dickinson, and Company, Sparks, Md.) containing piperacillin/tazobactam 16 μg/mL and linezolid 8 μg/mL, respectively. The plates were incubated in room air at 37° C. far 24 or 48 hours, and the number of colony-forming units (CFU) of each pathogen per gram of sample was calculated.
# High-density VRE stool colonization was established in mice by administering subcutaneous clindamycin (1.4 mg) once each day for 2 days before and 7 days after orogastric inoculation of 10^6 colony-forming units (CFU) of VRE C68 using a stainless steel feeding tube (Perfektum, Popper & Sons, New Hyde Park, N.Y.). […] Six mice were included in each treatment group.
# To evaluate the possibility that ramoplanin-treated mice were being re-exposed to VRE from their environment, broth-enrichment cultures for VRE were performed as previously described Ray et al. (JAMA 287: 1400-1401, 2002) after contacting cage bottoms and tops, water bottles, and food with pre-moistened cotton-tipped swabs.
# [4] = In vitro interaction with human gastro-intestinal contents
# From the text: The in vitro interaction of ramoplanin with human gastro-intestinal contents was studied.
# [5] = test system: E faecalis; conditions: 30 strains; cited from earlier work
# [6] = test system: E. faecium C68 (VanB-type clinical VRE isolate); assay: Minimum-inhibitory concentration for VRE C68; type: cell-based
# Method: Pathogens Studied: E. faecium C68, a previously described VanB-type clinical VRE isolate, was used for the following murine VRE experiments (Donskey et al., J. Microbial. Meth. 1807: 1-8, 2003). […] Klebsiella pneumoniae P62 is a clinical isolate that produces an SHV type extended-spectrum β-lactamase (ESBL). Candida glabrata A239 is a clinical isolate with a fluconazole minimum-inhibitory concentration of 2 μg/mL.
# [7] = test system: S. pneumoniae; conditions: 20 strains; cited from earlier work
# [8] = test system: Bacillus spp.; conditions: 10 strains; cited from earlier work
# [9] = test system: S. aureus (MSSA); conditions: 140 strains; cited from earlier work
# [10] = single oral doses up to 1000 mg, multiple 200, 400 or 800 mg BID 10 days, bioassay and HPLC
# [11] = day 8 of 100 μg/ml drinking water, 8 mice
substance,measurement,setting,value
Ramoplanin,absorption from the human gastro-intestinal tract,"[1]; 200, 400 or 800 mg twice a day, ten days","very little, if any, is absorbed; also recorded: No absorption"
same,"faecal concentration, average","[1]; Day 3, 200 mg group",827 µg/g
same,"faecal concentration, average","[1]; Day 3, 400 mg group",1742 µg/g
same,"faecal concentration, average","[1]; Day 3, 800 mg group",1901 µg/g
same,"faecal concentration, average","[1]; Day 10, 200 mg group",949 µg/g
same,"faecal concentration, average","[1]; Day 10, 400 mg group",1417 µg/g
same,"faecal concentration, average","[1]; Day 10, 800 mg group",2647 µg/g
same,ramoplanin in urine,[1]; day 1 or 5 and pooled urine up to 72-96 after the last dose,no ramoplanin was detected
same,ramoplanin in serum,"[1]; days 1, 5, 10, 0.5-12 hours after the morning dose, 200, 400 or 800 mg twice a day",not detected
same,faecal concentrations post-treatment,[1]; four days post-treatment,remained detectable in some subjects
same,ramoplanin in serum/plasma,[1]; [10],not detected
same,ramoplanin in urine,[1]; [10],not detected
same,cumulative recovery in faeces,[1]; up to Day 4 post-treatment,25 % of the administered dose
same,overgrowth / establishment of VRE stool colonization after prior ramoplanin treatment,[2],did not facilitate the establishment of stool colonization; also recorded: did not develop significant overgrowth of VRE
same,mice that developed a recurrence of colonization after discontinuing treatment,[3]; 100 μg/ml in drinking water,One hundred
same,mice that developed a detectable recurrence of colonization after discontinuing treatment,[3]; 500 μg/ml in drinking water,50%
same,levels of VRE in stool during treatment,"[3]; 100 or 500 μg/ml in drinking water, 8 days, P<0.0001 vs controls",undetectable levels
same,mice with VRE detectable in sections of the cecal lining,[3]; [11],25%
same,mice with negative stool and cecal content cultures for VRE,[3]; [11],100%
same,level of VRE in sections of the cecal lining,"[3]; the 2 positive mice, day 8 of 100 μg/ml drinking water",2-3 log10 CFU/g
same,binding to solid components of faeces,[4],bind reversibly
same,microbiological activity in faeces,[4],microbiologically active in faeces
same,Ramoplanin MIC90,[5],0.5 µg/mL
same,minimum-inhibitory concentration,[6],0.125 µg/mL
same,Ramoplanin MIC90,[7],<0.03 µg/mL
same,Ramoplanin MIC90,[8],0.25 µg/mL
same,Ramoplanin MIC90,[9],0.5 µg/mL
